Values after ≈ are worked out from the molar mass of the structure shown. Active and inactive are the calls of the source. The rule behind the calls is not given here.
Tests used:
[1] = Toxicity in Artemia salina assessed as lethality at 100 ug/ml measured after 6 to 24 hrs; assay type: organism-based; settings: in vivo
Micrococcus luteus = experiment: Antimicrobial activity against Micrococcus luteus by microplate assay; assay type: functional
Vibrio alginolyticus = experiment: Antimicrobial activity against Vibrio alginolyticus by microplate assay; assay type: functional
Candida albicans = experiment: Antimicrobial activity against Candida albicans by microplate assay; assay type: functional
Escherichia coli = experiment: Antimicrobial activity against Escherichia coli by microplate assay; assay type: functional

Row | Structure (SMILES) | mortality at 100 ug/ml [1] [%] | MIC (Micrococcus luteus) | MIC (Vibrio alginolyticus) | MIC (Candida albicans) | MIC (Escherichia coli)
1 | CC1=CC(=O)C(C)=C2O[C@@]3(C[C@]12C)[C@@H](C)CC[C@H]1C(C)(C)[C@@H](O)CC[C@@]13C | < 60 | 8 µg/mL (≈ 21.5 µM) | 32 µg/mL (≈ 85.9 µM) | 32 µg/mL (≈ 85.9 µM) | 32 µg/mL (≈ 85.9 µM)
2 | C[C@@H]1[C@H](O)[C@@H](C)/C=C/C=C/C=C/C=C/C=C/C=C/C=C/[C@H](O[C@@H]2O[C@H](C)[C@@H](O)[C@H](N)[C@@H]2O)C[C@@H]2O[C@](O)(C[C@@H](O)C[C@@H](O)[C@H](O)CC[C@@H](O)C[C@@H](O)CC(=O)O[C@H]1C)C[C@H](O)[C@H]2C(=O)O [AMPHOTERICIN B] | – | – | – | 2 µg/mL (≈ 2.16 µM) | –
3 | O=C(N[C@H](CO)[C@H](O)c1ccc([N+](=O)[O-])cc1)C(Cl)Cl [CHLORAMPHENICOL] | – | 2 µg/mL (≈ 6.19 µM) | 4 µg/mL (≈ 12.4 µM) | – | 2 µg/mL (≈ 6.19 µM)
4 | COC(=O)[C@@H]1C(=O)C(C)=C2O[C@@]3(C[C@]2(C)[C@H]1C)[C@@H](C)[C@@H](O)C[C@H]1C(C)(C)[C@@H](O)CC[C@@]13C | < 60 | inactive | inactive | inactive | inactive
5 | CC1=C2O[C@@]3(C[C@]2(C)C(C)=C(C(=O)O)C1=O)[C@@H](C)CC[C@H]1C(C)(C)C(=O)CC[C@@]13C | < 60 | inactive | inactive | inactive | 64 µg/mL (≈ 154 µM)
6 | CC1=CC(=O)C(C)=C2O[C@@]3(C[C@]12C)[C@@H](C)CC[C@H]1C(C)(C)C(=O)CC[C@@]13C | < 60 | 8 µg/mL (≈ 21.6 µM) | 64 µg/mL (≈ 173 µM) | 64 µg/mL (≈ 173 µM) | 64 µg/mL (≈ 173 µM)

Source: ChEMBL document CHEMBL4431305, “Chermesins A-D: Meroterpenoids with a Drimane-Type Spirosesquiterpene Skeleton from the Marine Algal-Derived Endophytic Fungus Penicillium chermesinum EN-480” (J Nat Prod, 2016)
